In patent publication US20250195513A1, “DEGRADATION OF IRAK4 BY CONJUGATION OF IRAK4 INHIBITORS WITH E3 LIGASE LIGAND AND METHODS OF USE” (BeiGene, Ltd., priority 2022, published 2025):

How the values were obtained:
Assay type in all cases: cell-based
[1] = target: T1, IRAK4 (Homo sapiens, UniProt Q9NWZ3); assay: IRAK4 Degradation Assay (Karpas299, HTRF/TR-FRET); conditions: Karpas-299 cells; for Dmax: maximum percentage of degradation
T1 construct: endogenous in cells; host or cells: Karpas299
T1 sequence (Q9NWZ3 1-460): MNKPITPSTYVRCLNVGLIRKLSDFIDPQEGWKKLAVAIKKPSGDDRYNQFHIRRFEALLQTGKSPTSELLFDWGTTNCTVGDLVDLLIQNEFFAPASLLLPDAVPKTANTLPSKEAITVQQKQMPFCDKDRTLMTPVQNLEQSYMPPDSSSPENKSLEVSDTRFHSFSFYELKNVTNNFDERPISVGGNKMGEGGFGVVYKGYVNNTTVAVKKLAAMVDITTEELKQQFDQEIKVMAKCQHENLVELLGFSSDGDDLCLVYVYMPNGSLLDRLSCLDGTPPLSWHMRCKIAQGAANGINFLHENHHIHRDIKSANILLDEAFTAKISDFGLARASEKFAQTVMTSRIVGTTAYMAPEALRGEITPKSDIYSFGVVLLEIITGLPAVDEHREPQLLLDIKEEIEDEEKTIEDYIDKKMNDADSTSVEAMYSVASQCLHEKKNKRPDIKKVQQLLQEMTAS
In short: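 Karpas299 cells at 0.2 million per well were exposed to serially diluted compounds for 24 h or 5 h, then lysed. IRAK4 remaining in lysates was quantified by HTRF (665/620 nm) after overnight antibody incubation at room temperature. Percent degradation was fitted to a four-parameter curve to give IC50 (DC50).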

[2] = tested on: TNF-α production in THP-1 cells; assay: TNF-α Production Assay in THP-1 Cells (LPS stimulated); conditions: Homo sapiens, THP-1, 24 h
Experimental: THP-1 cells maintained in RPMI 1640 medium (Thermo Scientific) supplemented with 10% FBS (Thermo Scientific), 100 units/mL penicillin and 0.1 mg/mL streptomycin (Thermo Scientific) were seeded into 96-well plates at the density of 0.2 million cells per well and then treated with compounds for 24 h. Lipopolysaccharide was subsequently added at the final concentration of 1 μg/mL for 24 h. Culture supernatant was collected for measurement of TNF-α concentration by a TR-FRET-based method (Degorce, François, et al. Current chemical genomics. 2009, 3: 22) as described by the manufacturer manual (Cisbio). FRET signals were measured using a PHERAstar FSX reader (BMG Labtech).

[3] = target: T1, IRAK4; assay: IRAK4 Degradation Assay with Human Serum (Karpas299, HTRF/TR-FRET); conditions: Karpas-299 in human serum, 24 hrs treatment; for DC50: read-out: IRAK4 degradtion with human serum assay DC50; for Dmax: read-out: IRAK4 degradtion with human serum assay Dmax (%)
In short: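 Karpas299 cells in human AB serum (0.2 million/well) treated with serial compound dilutions for 24 h. After lysis, IRAK4 quantified by HTRF (overnight antibody incubation at room temperature, 665/620 nm read). Degradation percentage fitted to four-parameter curve to give DC50.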

[4] = 24 h treatment, read-out: IRAK4 in Karpas-299 (24 h) Dmax (%)
[5] = 24 h treatment, read-out: IRAK4 in Karpas-299 (24 h) DC50

| Dmax [1, 4] [%] | DC50 [1, 5] [nM] | IC50 [2] [nM] | DC50 [3] [nM] | Dmax [3] [%] | Dmax ([1]; 5 h treatment, read-out: IRAK4 in Karpas-299 (5 h) Dmax (%)) [%] | DC50 ([1]; 5 h treatment, read-out: IRAK4 in Karpas-299 (5 h) DC50) [nM] | Structure (SMILES) | Emax ([2]; maximum inhibition, read-out: TNF-α (THP-1) 24 h IMax) [%] |
| --- | --- | --- | --- | --- | --- | --- | --- | --- |
| 96 | 1.3 | 53 | – | – | – | – | CC(C)(O)c1cc2nn([C@H]3CC[C@H](N4CCN(C(=O)C5CN(c6cc(F)c(N7CCC(=O)NC7=O)c(F)c6)C5)CC4)CC3)cc2cc1NC(=O)c1cccc(C(F)(F)F)n1 [Example 114, N-(2-((1r,4r)-4-(4-(1-(4-(2,4-dioxotetrahydropyrimidin-1(2H)-yl)-3,5-difluorophenyl)azetidine-3-carbonyl)piperazin-1-yl)cyclohexyl)-6-(2-hydroxypropan-2-yl)-2H-indazol-5-yl)-6-(trifluoromethyl)picolinamide] | 78 |
| 97 | 0.6 | – | 48 | 97 | – | – | CC(C)(O)c1cc2nn([C@H]3CC[C@H](N4CCN(C(=O)C5CCN(c6cc(F)c([C@H]7CCC(=O)NC7=O)c(F)c6)CC5)CC4)CC3)cc2cc1NC(=O)c1ccc2cc(C#N)cnn12 [Example 291] | – |
| 96 | 2.6 | – | 21 | 97 | – | – | COc1cc(N2CC(C(=O)N3CCN([C@H]4CC[C@H](n5cc6cc(NC(=O)c7ccc8cc(C#N)cnn78)c(C(C)(C)O)cc6n5)CC4)CC3)C2)c(F)cc1N1CCC(=O)NC1=O [Example 258, 3-cyano-N-(2-((1r,4r)-4-(4-(1-(4-(2,4-dioxotetrahydropyrimidin-1(2H)-yl)-2-fluoro-5-methoxyphenyl)azetidine-3-carbonyl)piperazin-1-yl)cyclohexyl)-6-(2-hydroxypropan-2-yl)-2H-indazol-5-yl)pyrrolo[1,2-b]pyridazine-7-carboxamide] | – |
| 100 | 0.5 | – | 3.6 | 99 | – | – | C[C@H]1CN(C2CCN(c3cc(F)c([C@H]4CCC(=O)NC4=O)c(F)c3)CC2)CCN1[C@H]1CC[C@H](n2cc3cc(NC(=O)c4ccc5cc(C#N)cnn45)c(C(C)(C)O)cc3n2)CC1 [Example 307, 3-cyano-N-(2-((1S,4r)-4-((S)-4-(1-(4-((R)-2,6-dioxopiperidin-3-yl)-3,5-difluorophenyl)piperidin-4-yl)-2-methylpiperazin-1-yl)cyclohexyl)-6-(2-hydroxypropan-2-yl)-2H-indazol-5-yl)pyrrolo[1,2-b]pyridazine-7-carboxamide] | – |
| 97 | 1.7 | – | 28 | 97 | – | – | CCc1cc(N2CC(C(=O)N3CCN([C@H]4CC[C@H](n5cc6cc(NC(=O)c7ccc8cc(C#N)cnn78)c(C(C)(C)O)cc6n5)CC4)CC3)C2)ccc1N1CCC(=O)NC1=O [Example 257, 3-cyano-N-(2-((1r,4r)-4-(4-(1-(4-(2,4-dioxotetrahydropyrimidin-1(2H)-yl)-3-ethylphenyl)azetidine-3-carbonyl)piperazin-1-yl)cyclohexyl)-6-(2-hydroxypropan-2-yl)-2H-indazol-5-yl)pyrrolo[1,2-b]pyridazine-7-carboxamide] | – |
| 96 | 1.3 | – | 25 | 103 | 93 | 2.2 | CC(C)(O)c1cc2nn(C3CCN(C4CCN(C(=O)[C@@H]5CCN(c6cc(F)c([C@H]7CCC(=O)NC7=O)c(F)c6)C5)CC4)CC3)cc2cc1NC(=O)c1ccc2cc(C#N)cnn12 [Example 347, 3-cyano-N-(2-(1′-((R)-1-(4-((R)-2,6-dioxopiperidin-3-yl)-3,5-difluorophenyl)pyrrolidine-3-carbonyl)-[1,4′-bipiperidin]-4-yl)-6-(2-hydroxypropan-2-yl)-2H-indazol-5-yl)pyrrolo[1,2-b]pyridazine-7-carboxamide] | – |

The next lines start with the compound.

| Structure (SMILES) | Dmax [1, 4] [%] | DC50 [1, 5] [nM] | IC50 [2] [nM] | DC50 [3] [nM] | Dmax [3] [%] | Dmax ([1]; 5 h treatment, read-out: IRAK4 in Karpas-299 (5 h) Dmax (%)) [%] | DC50 ([1]; 5 h treatment, read-out: IRAK4 in Karpas-299 (5 h) DC50) [nM] | Emax ([2]; maximum inhibition, read-out: TNF-α (THP-1) 24 h IMax) [%] |
| --- | --- | --- | --- | --- | --- | --- | --- | --- |
| COC[C@H]1CN([C@H]2CC[C@H](n3cc4cc(NC(=O)c5ccc6cc(C#N)cnn56)c(C(C)(C)O)cc4n3)CC2)CCN1C1CN(c2cc(F)c([C@H]3CCC(=O)NC3=O)c(F)c2)C1 [Example 318, 3-cyano-N-(2-((1R,4r)-4-((R)-4-(1-(4-((R)-2,6-dioxopiperidin-3-yl)-3,5-difluorophenyl)azetidin-3-yl)-3-(methoxymethyl)piperazin-1-yl)cyclohexyl)-6-(2-hydroxypropan-2-yl)-2H-indazol-5-yl)pyrrolo[1,2-b]pyridazine-7-carboxamide] | 91 | 1.1 | – | 39 | 95 | – | – | – |
| CC(C)(O)c1cc2nn([C@H]3CC[C@H](N4CCN(CCNc5cccc6c5C(=O)N(C5CCC(=O)NC5=O)C6=O)CC4)CC3)cc2cc1NC(=O)c1ccc2cc(C#N)cnn12 (stereo partly drawn) [Example 437, 3-cyano-N-(2-((1r,4r)-4-(4-(2-((2-(2,6-dioxopiperidin-3-yl)-1,3-dioxoisoindolin-4-yl)amino)ethyl)piperazin-1-yl)cyclohexyl)-6-(2-hydroxypropan-2-yl)-2H-indazol-5-yl)pyrrolo[1,2-b]pyridazine-7-carboxamide] | 99 | 4.7 | – | 9.4 | 101 | – | – | – |
| CC(C)(O)c1cc2nn(C34CC(N5CCN(C(=O)C6CN(c7cc(F)c([C@H]8CCC(=O)NC8=O)c(F)c7)C6)CC5)(C3)C4)cc2cc1NC(=O)c1ccc2cc(C#N)cnn12 [Example 157, (R)-3-cyano-N-(2-(3-(4-(1-(4-(2,6-dioxopiperidin-3-yl)-3,5-difluorophenyl)azetidine-3-carbonyl)piperazin-1-yl)bicyclo[1.1.1]pentan-1-yl)-6-(2-hydroxypropan-2-yl)-2H-indazol-5-yl)pyrrolo[1,2-b]pyridazine-7-carboxamide] | 98 | 0.4 | – | 21 | 99 | – | – | – |
| COC[C@@H]1CN([C@H]2CC[C@H](n3cc4cc(NC(=O)c5ccc6cc(C#N)cnn56)c(C(C)(C)O)cc4n3)CC2)CCN1C1CCN(c2ccc(C3CCC(=O)NC3=O)nc2C)CC1 (stereo partly drawn) [Example 418, 3-cyano-N-(2-((1S,4r)-4-((3S)-4-(1-(6-(2,6-dioxopiperidin-3-yl)-2-methylpyridin-3-yl)piperidin-4-yl)-3-(methoxymethyl)piperazin-1-yl)cyclohexyl)-6-(2-hydroxypropan-2-yl)-2H-indazol-5-yl)pyrrolo[1,2-b]pyridazine-7-carboxamide] | 94 | 1.8 | – | 6.1 | 100 | – | – | – |
| CC(=O)c1cc2nn([C@H]3CC[C@H](N4CCN(C5CN(c6cc(F)c([C@H]7CCC(=O)NC7=O)c(F)c6)C5)CC4)CC3)cc2cc1NC(=O)c1ccc2cc(C#N)cnn12 [Example 425, N-(6-acetyl-2-((1R,4r)-4-(4-(1-(4-((R)-2,6-dioxopiperidin-3-yl)-3,5-difluorophenyl)azetidin-3-yl)piperazin-1-yl)cyclohexyl)-2H-indazol-5-yl)-3-cyanopyrrolo[1,2-b]pyridazine-7-carboxamide] | 98 | 0.6 | – | 19 | 94 | – | – | – |
| Cc1nc(C2CCC(=O)NC2=O)ccc1N1CCC(N2CCN(C34CC(n5cc6cc(NC(=O)c7ccc8cc(C#N)cnn78)c(C(C)(C)O)cc6n5)(C3)C4)CC2)CC1 (stereo not drawn) [Example 419, 3-cyano-N-(2-(3-(4-(1-(6-(2,6-dioxopiperidin-3-yl)-2-methylpyridin-3-yl)piperidin-4-yl)piperazin-1-yl)bicyclo[1.1.1]pentan-1-yl)-6-(2-hydroxypropan-2-yl)-2H-indazol-5-yl)pyrrolo[1,2-b]pyridazine-7-carboxamide] | 97 | 1.6 | – | 4 | 97 | – | – | – |
| CC(C)(O)C[C@H]1CN(CCc2cc(F)c([C@H]3CCC(=O)NC3=O)c(F)c2)CCN1[C@H]1CC[C@H](n2cc3cc(NC(=O)c4ccc5cc(C#N)cnn45)c(C(C)(C)O)cc3n2)CC1 [Example 369, 3-cyano-N-(2-((1S,4r)-4-((S)-4-(4-((R)-2,6-dioxopiperidin-3-yl)-3,5-difluorophenethyl)-2-(2-hydroxy-2-methylpropyl)piperazin-1-yl)cyclohexyl)-6-(2-hydroxypropan-2-yl)-2H-indazol-5-yl)pyrrolo[1,2-b]pyridazine-7-carboxamide] | 96 | 0.6 | – | 3 | 97 | – | – | – |
